Results as given in US20020019378A1, “COMPOUNDS” (priority 1997, published 2002).

Assays:
human serum paraoxonase = human serum paraoxonase (Homo sapiens, UniProt P27169); assay: Hydrolysis by human serum paraoxonase (enzymatic hydrolysis test method); format: in vitro ADME; conditions: 5% bovine serum albumin, 20 mM CaCl2, 37° C.
Procedure: The compounds herein have relatively short half-lives in blood in vitro. A test method for determining the half-life of the compounds under defined enzymatic hydrolysis conditions in vitro is now described. The test method is believed to provide a suitable indicator as to effects in vivo. In the test method, the hydrolysis of test compounds by a lactonase enzyme is monitored using RP HPLC with UV detection.
The ‘enzymatic hydrolysis test method’ is as follows: Incubations are carried out in 1 ml volumes in an aqueous medium containing 5% bovine serum albumin in the presence of 20 mM CaCl2. The solutions are preincubated at 37° C. for 5 minutes before the addition of the test compound (5 μl of a 5 mg/ml solution in DMSO) and then lactonase enzyme (10 μl to the 1 ml incubations). Control incubations containing no enzyme are also included. The enzymatic hydrolysis is monitored by removal of aliquots and quenching the reaction by the addition of an equal volume of acetonitrile. The samples are vortex mixed, then centrifuged and the supernatants are transferred to autosampler vials for HPLC analysis.
In a suitable HPLC procedure, aliquots (20 μl) of the supernatants are injected onto a Zorbax Rx C8 column (250×4.6mm; Hichrom). The column is maintained at 40° C. and eluted at a flow rate of 1.0 mL/min with a mobile phase of acetonitrile: 50 mM ammonium formate (65:35) adjusted to pH 4.2 with formic acid. Detection is by UV absorbance at 240 nm, and chromatographic peak areas for both parent and metabolite are measured.
In a preferred aspect, the half-life of each compound may be determined by a method in which peak areas are plotted against time on a log-linear scale, and the half lives determined by extrapolation or interpolation of a straight line joining two points.
The above described ‘enzymatic hydrolysis test method’ employs lactonase enzyme. Suitable forms of lactonase enzyme include human serum paraoxonase or a recombinant form thereof, or purified lactonase, obtained from human plasma as described hereinafter. Purification of human serum paraoxonase is described by C E Furlong et al, Chem.Biol.Interactions, Vol 87, p35-48, (1993) and recombinant human serum paraoxonase is described in International Patent application No. WO 96/01322
The susceptibility to hydrolysis by human serum paraoxonase of certain of the compounds of the Examples was assessed using the test protocol of the ‘enzymatic hydrolysis test method’ described herein.

[1] = Stability in human plasma test method; format: in vitro ADME; conditions: 37° C.
Procedure: The stability of various of the compounds of the Examples in human plasma was tested using the following ‘stability in human plasma’ test method: 500 μl aliquots of human plasma in screw capped polypropylene tubes were preincubated at 37° C. in a waterbath for 5 minutes. The plasma samples were then spiked with 5 μl of test compound (nominally 5 mg/ml in DMSO). Aliquots (100 μl ) were removed immediately and after 5 minutes and mixed with an equal volume of acetonitrile. The samples were centrifuged and the supernatants were transferred to autosampler vials for HPLC and half-life analysis.
In the HPLC procedure, aliquots (20 μl) of all the supernatants were injected onto a Zorbax Rx C8 column (250×4.6mm; Hichrom). The column was maintained at 40° C. and eluted at a flow rate of 1.0 mL/min with a mobile phase of acetonitrile: 50 mM ammonium formate (65:35) adjusted to pH 4.2 with formic acid. Detection was by UV absorbance at 240 nm, and chromatographic peak areas for both parent and metabolite were measured
To determine the half-life, for each compound peak areas were plotted against time on a log-linear scale, and the half lives determined by extrapolation or interpolation of a straight line joining two points.

[2] = target: T1, Human Glucocorticoid Receptor (Homo sapiens, UniProt P04150); assay: Functional in vitro glucocorticoid activity assay: Hela cells stably transfected with sPAP reporter gene under MMTV LTR promoter; format: cell-based; conditions: 72 hours incubation, values given as 'less than (about)', read-out: EC50 (sPAP transcription, glucocorticoid activity)
T1 construct: endogenous in cells; host or cells: HeLa cells stably transfected with an MMTV-LTR sPAP reporter
T1 sequence (P04150 1-777): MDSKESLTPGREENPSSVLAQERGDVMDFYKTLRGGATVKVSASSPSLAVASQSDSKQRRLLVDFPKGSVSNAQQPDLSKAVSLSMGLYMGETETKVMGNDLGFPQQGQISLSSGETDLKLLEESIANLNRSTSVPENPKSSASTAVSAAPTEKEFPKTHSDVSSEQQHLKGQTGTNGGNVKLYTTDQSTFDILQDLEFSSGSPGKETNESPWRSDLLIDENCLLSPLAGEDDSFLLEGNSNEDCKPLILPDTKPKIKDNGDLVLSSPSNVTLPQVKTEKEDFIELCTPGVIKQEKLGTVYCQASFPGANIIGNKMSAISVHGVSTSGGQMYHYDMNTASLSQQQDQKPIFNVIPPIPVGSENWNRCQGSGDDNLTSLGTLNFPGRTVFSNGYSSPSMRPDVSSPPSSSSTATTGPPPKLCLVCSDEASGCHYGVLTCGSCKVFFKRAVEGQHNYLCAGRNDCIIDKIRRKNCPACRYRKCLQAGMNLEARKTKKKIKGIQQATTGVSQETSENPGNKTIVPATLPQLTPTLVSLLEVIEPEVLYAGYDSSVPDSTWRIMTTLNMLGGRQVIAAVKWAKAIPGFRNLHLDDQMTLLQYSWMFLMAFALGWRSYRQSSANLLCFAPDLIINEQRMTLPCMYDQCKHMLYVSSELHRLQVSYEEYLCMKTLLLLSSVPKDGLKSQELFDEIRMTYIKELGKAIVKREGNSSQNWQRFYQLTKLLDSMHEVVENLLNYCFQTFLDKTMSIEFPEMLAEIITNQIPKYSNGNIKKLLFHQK
Excerpt: The functional assay used was a modification of the method described by T. S Berger et al, of J. of Steroid Biochem. Molec. Biol. 1992, 41 (3-8), 733-738, “Interaction of Glucocorticoid analogues with the Human Glucocorticoid Receptor”. Thus, Hela cells were stably transfected with a detectable reporter gene (secreted placental alkaline phosphatase, sPAP) under the control of a glucocorticoid response promoter (the LTR of the mouse mammary tumour virus, MMTV). Various concentrations of standard (dexamethasone) or compounds of the invention were incubated with transfected Hela cells for 72 hours. At the end of the incubation, substrate ([…]) for sPAP was added and the product measured by a spectrophotometric method. Increased absorbance reflected increased sPAP transcription and concentration-response lines were constructed such that EC50-values could be estimated.

[3] = Stability in human lung S9; format: in vitro ADME; conditions: human lung S9 diluted 1:1 with phosphate buffer pH 7.4, NADPH, 37° C.
Procedure: The stability of the compound of Examples 4 and 6 in a model human lung environment was assessed using the following test protocol: Incubations were carried out, at 37° C., in 500 μL volumes of human lung S9 diluted 1:1 with 10 mM phosphate buffer pH 7.4 to which was added 50 μl of 30 mg/ml (Aq) NADPH. The reactions were started by the addition of 5 μl of test compound (nominally 5 mg/ml solution in DMSO). Aliquots (100 μl) were removed immediately and after 1 hour and mixed with an equal volume of acetonitrile to stop the reaction. Samples were centrifuged and the supernatants were transferred to autosampler vials for HPLC analysis and half-life analysis using methods identical to those described in the ‘stability in human plasma’ test protocol described above. Control incubations containing no lung S9 were also included.

human serum paraoxonase, sequence (P27169 whole entry): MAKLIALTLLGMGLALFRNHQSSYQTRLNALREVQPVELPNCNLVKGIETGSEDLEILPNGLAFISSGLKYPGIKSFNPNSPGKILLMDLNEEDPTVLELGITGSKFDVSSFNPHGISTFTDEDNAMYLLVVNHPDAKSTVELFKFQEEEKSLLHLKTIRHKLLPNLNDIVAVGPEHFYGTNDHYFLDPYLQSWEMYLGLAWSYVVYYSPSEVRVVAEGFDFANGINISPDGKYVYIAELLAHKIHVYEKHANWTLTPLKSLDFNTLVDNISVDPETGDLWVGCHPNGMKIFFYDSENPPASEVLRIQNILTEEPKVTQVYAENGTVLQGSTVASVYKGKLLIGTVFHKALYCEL

With CC12CCC(=O)C=C1C(F)CC1C3CC4OC(CSC5CCOC5=O)OC4(C(=O)CO)C3(C)CC(O)C12F (stereo not drawn) [Example 4, 6α,9α-Difluoro-11β,21-dihydroxy-16α, 17α-[2-(2-oxo-tetrahydro-furan-3-yl)sulfanyl]ethylidenedioxy-pregn-4-ene-3,20-dione] the “Hydrolysis by human serum paraoxonase” value (human serum paraoxonase) was “hydrolysed”, the half-life at 49.5 µg/mL [1] was under 10 min and the EC50 [2] was under 0.25 µM. It also gave a half-life at 45 µg/mL [3] of over 60 min.
